Data as given in ChEMBL document CHEMBL5576064, “Development of carbonic anhydrase IX-targeting molecular-targeted photodynamic therapy” (Bioorg Med Chem Lett, 2024).
Calls of active or inactive are those of the source. The rule behind the calls is not given here.

Assays:
[1] = biological target: Carbonic anhydrase 9 (Homo sapiens) (UniProt Q16790); assay: Inhibition of carbonic anhydrase IX in human A549 cells assessed as downregulation of CAIX expression at 1 uM incubated for 60 mins followed by compound washout and 540 nm light irradiation measured after 15 mins by Western blotting analysis; format: cell-based
[2] = biological target: Carbonic anhydrase 9 (Homo sapiens) (UniProt Q16790); assay: Inhibition of carbonic anhydrase IX in human U87 cells assessed as downregulation of CAIX expression at 1 uM incubated for 60 mins followed by compound washout and 540 nm light irradiation measured after 15 mins by Western blotting analysis; format: cell-based
[3] = biological target: Carbonic anhydrase 9 (Homo sapiens) (UniProt Q16790); assay: Inhibition of carbonic anhydrase IX in human A549 cells assessed as downregulation of CAIX expression at 1 uM incubated for 60 mins by Western blotting analysis; format: cell-based
[4] = biological target: Carbonic anhydrase 9 (Homo sapiens) (UniProt Q16790); assay: Inhibition of carbonic anhydrase IX in human U87 cells assessed as downregulation of CAIX expression at 1 uM incubated for 60 mins by Western blotting analysis; format: cell-based
[5] = biological target: Carbonic anhydrase 9 (Homo sapiens) (UniProt Q16790); assay: Inhibition of carbonic anhydrase IX in human U87 cells assessed as downregulation of CAIX expression at 1 uM incubated for 60 mins followed by compound washout and 540 nm light irradiation measured after 15 mins by Hoechst 33342 staining based immunostaining analysis; format: cell-based
[6] = biological target: Carbonic anhydrase 9 (Homo sapiens) (UniProt Q16790); assay: Inhibition of carbonic anhydrase IX in human U87 cells assessed as nuclear localization of CAIX at 1 uM incubated for 60 mins followed by compound washout and 540 nm light irradiation measured after 15 mins by Hoechst 33342 staining based immunostaining analysis; format: cell-based
[7] = tested on: A549; assay: Photodynamic antitumor activity against human A549 cells assessed as inhibition of cell growth incubated for 60 mins followed by compound washout and light irradiation measured after 72 hrs by MTT assay; format: functional, cell-based; conditions: A549, light or radiation study
[8] = tested on: U-87 MG; assay: Photodynamic antitumor activity against human U87 cells assessed as inhibition of cell growth incubated for 60 mins followed by compound washout and light irradiation measured after 72 hrs by MTT assay; format: functional, cell-based, U-87MG ATCC; conditions: light or radiation study
[9] = tested on: A549; assay: Photodynamic antitumor activity against human A549 cells assessed as inhibition of cell growth at 0.001 to 30 uM incubated for 60 mins followed by compound washout and light irradiation measured after 72 hrs by MTT assay; format: functional, cell-based; conditions: dose 0.001-30 µM
[10] = tested on: U-87 MG; assay: Photodynamic antitumor activity against human U87 cells assessed as inhibition of cell growth at 0.001 to 30 uM incubated for 60 mins followed by compound washout and light irradiation measured after 72 hrs by MTT assay; format: functional, cell-based; conditions: U-87MG ATCC, dose 0.001-30 µM
[11] = tested on: A549; assay: Antitumor activity against human A549 cells assessed as inhibition of cell growth at 0.001 to 30 uM incubated for 60 mins by MTT assay; format: functional, cell-based; conditions: dose 0.001-30 µM
[12] = tested on: U-87 MG; assay: Antitumor activity against human U87 cells assessed as inhibition of cell growth at 0.001 to 30 uM incubated for 60 mins by MTT assay; format: functional, cell-based; conditions: U-87MG ATCC, dose 0.001-30 µM
[13] = tested on: U-87 MG; assay: Photodynamic antitumor activity against human U87 cells assessed as inhibition of cell growth at 1 uM incubated for 60 mins followed by compound washout and addition of ROS scavenger NaN3 and light irradiation measured after 72 hrs by MTT assay; format: functional, cell-based; conditions: U-87MG ATCC
[14] = tested on: U-87 MG; assay: Photodynamic antitumor activity against human U87 cells assessed as inhibition of cell growth at 1 uM incubated for 60 mins followed by compound washout and addition of ROS scavenger NaP and light irradiation measured after 72 hrs by MTT assay; format: functional, cell-based; conditions: U-87MG ATCC
[15] = tested on: U-87 MG; assay: Photodynamic antitumor activity against human U87 cells assessed as inhibition of cell growth at 1 uM incubated for 60 mins followed by compound washout and addition of ROS scavenger Tiron and light irradiation measured after 72 hrs by MTT assay; format: functional, cell-based; conditions: U-87MG ATCC
[16] = tested on: U-87 MG; assay: Photodynamic antitumor activity against human U87 cells assessed as inhibition of cell growth at 1 uM incubated for 60 mins followed by compound washout and addition of ROS scavenger Trolox and light irradiation measured after 72 hrs by MTT assay; format: functional, cell-based; conditions: U-87MG ATCC
[17] = tested on: U-87 MG; assay: Photodynamic antitumor activity against human U87 cells assessed as inhibition of cell growth at 1 uM incubated for 60 mins followed by compound washout and addition of ROS scavenger D-mannitol and light irradiation measured after 72 hrs by MTT assay; format: functional, cell-based; conditions: U-87MG ATCC
[18] = tested on: U-87 MG; assay: Photodynamic antitumor activity against human U87 cells assessed as inhibition of cell growth at 1 uM incubated for 60 mins followed by compound washout and addition of ROS scavenger NaN3 upto 30 uM and light irradiation measured after 72 hrs by MTT assay; format: functional, cell-based; conditions: U-87MG ATCC
[19] = tested on: U-87 MG; assay: Photodynamic antitumor activity against human U87 cells assessed as increase in ATP release incubated for 1 hr followed by compound washout and 540 nm light irradiation measured upto 10 mins by luciferase assay; format: functional, cell-based; conditions: U-87MG ATCC
[20] = tested on: 4T1; assay: Photodynamic antitumor activity against mouse 4T1 cells implanted mouse model assessed as reduction in tumor growth at 5 mg/kg,TOP administration followed by light irradiation measured after 12 days; format: functional, organism-based; conditions: time 12.0 day
[21] = tested on: 4T1; assay: Photodynamic antitumor activity against mouse 4T1 cells implanted mouse model assessed as reduction in tumor growth at 5 mg/kg,TOP administration measured after 12 days; format: functional, organism-based; conditions: time 12.0 day
[22] = tested on: 4T1; assay: Photodynamic antitumor activity against mouse 4T1 cells implanted mouse model assessed as increase in tumor degeneration at 5 mg/kg,TOP administration followed by light irradiation measured after 12 days; format: functional, organism-based; conditions: time 12.0 day
[23] = tested on: 4T1; assay: Photodynamic antitumor activity against mouse 4T1 cells implanted mouse model assessed as increase in tumor necrosis at 5 mg/kg,TOP administration followed by light irradiation measured after 12 days; format: functional, organism-based; conditions: time 12.0 day
[24] = Toxicity in mouse implanted with mouse 4T1 cells assessed as change in body weight at 5 mg/kg,TOP administration followed by light irradiation measured after 12 days; format: organism-based; conditions: in vivo, topical_or_ocular, 288 h, time 12 day
[25] = Toxicity in mouse implanted with mouse 4T1 cells assessed as change in body weight at 5 mg/kg,TOP administration measured after 12 days; format: organism-based; conditions: in vivo, topical_or_ocular, 288 h, time 12 day

With Cc1c(I)c(C)n2c1C=C1C=C(I)C(CCC(=O)NCCCCCCNC(=O)c3ccc(S(N)(=O)=O)cc3)=[N+]1[B-]2(F)F the inhibition [1] was “Active”, the inhibition [2] was “Active” and the inhibition [3] was “inactive”. The inhibition [4] was “inactive”, the inhibition [5] was “Active” and the inhibition [6] was “Active”. The IC50 [7] was 200 nM, the IC50 [8] was 50 nM and the Activity [9] was “Dose-Dependent Effect”. The Activity [10] was “Dose-Dependent Effect”, the Activity [11] was “inactive” and the Activity [12] was “inactive”. The Activity [13] was “inactive”, the Activity [14] was “Active” and the Activity [15] was “Active”. The Activity [16] was “Active”, the Activity [17] was “Active” and the Activity [18] was “inactive”. The Activity [19] was “Active”, the Activity [20] was “Active” and the Activity [21] was “inactive”. The Activity [22] was “Active”, the Activity [23] was “Active” and the Activity [24] was “Non-Toxic”. The Activity [25] was “Non-Toxic”.

In the case of Cc1c(Br)c(C)n2c1C=C1C=C(Br)C(CCC(=O)NCCCCCCNC(=O)c3ccc(S(N)(=O)=O)cc3)=[N+]1[B-]2(F)F, the inhibition [1] is reported as “Active”, the inhibition [2] is reported as “Active” and the inhibition [3] is reported as “inactive”. For the same compound, the inhibition [4] was “inactive”, the IC50 [7] was 400 nM and the IC50 [8] was 300 nM. The Activity [9] was “Dose-Dependent Effect”, the Activity [10] was “Dose-Dependent Effect” and the Activity [11] was “inactive”. The Activity [12] was “inactive”.

Cc1cc(C)n2c1C=C1C=CC(CCC(=O)NCCCCCCNC(=O)c3ccc(S(N)(=O)=O)cc3)=[N+]1[B-]2(F)F showed an IC50 [7] of 21300 nM and an IC50 [8] of 18900 nM.
